From ChEMBL document CHEMBL5126639, “Semisynthesis and Evaluation of Anti-Inflammatory Activity of the Cassane-Type Diterpenoid Taepeenin F and of Some Synthetic Intermediates” (J Nat Prod, 2022) come the findings set out here.

One test deals with Plasmodium falciparum. The test is described as follows: Antimalarial activity against Plasmodium falciparum FCR-3/A2 erythrocytic stage infected in human erythrocytes assessed as reduction in parasite growth after 48 hrs by Giemsa staining based assay. The settings on record: FCR-3/A2, Erythrocyte. Format: functional, organism-based.
A further test has as its system HT-29. Description: Antiproliferative activity against human HT-29 cells assessed as reduction in cell viability after 72 hrs by MTT assay. Format: functional, cell-based. Conditions: HT-29, 72 h.
Test [1] deals with RAW264.7. Description: Anti-inflammatory activity against mouse RAW264.7 cells assessed as inhibition of LPS-induced NO production at 0.25 times of IC50 concentration after 24 to 72 hrs by griess reagent assay relative to control. The format is functional, cell-based. Conditions: time 24-72 hrs. A general note: Griess reagent forms a coloured azo dye with nitrite.
The test system of test [2] is RAW264.7. Description: Anti-inflammatory activity against mouse RAW264.7 cells assessed as inhibition of LPS-induced NO production after 24 hrs by griess reagent assay. The format is functional, cell-based. Conditions: RAW264.7, 24 h.
The subject of test [3] is RAW264.7. The test is described as follows: Inhibition of LPS-induced cell differentiation in mouse RAW264.7 cells at 0.25 to 0.75 IC50 concentration after 72 hrs by propidium iodide staining based flow cytometric analysis. Format: functional. The settings on record: DDE = dose-dependent effect. On the technique in general: In flow cytometry, cells or beads pass a laser one at a time.

For test [4], the system named is B16-F10. The test is described as follows: Induction apoptosis in mouse B16-F10 cells assessed as early apoptotic cells at IC50 concentration after 72 hrs by AnnexinV/propidium iodide staining based flow cytometric analysis (reference value: 0.1%). Format: functional.
Test [5] concerns B16-F10. The test is described as follows: Induction apoptosis in mouse B16-F10 cells assessed as increase in apoptotic cells at IC50 to IC80 concentration after 48 to 72 hrs by AnnexinV/propidium iodide staining based flow cytometric analysis. The settings on record: time 48-72 hrs, DDE = dose-dependent effect. The format is functional, cell-based.
The subject of test [6] is B16-F10. Description: Induction apoptosis in mouse B16-F10 cells assessed as viable cells at IC50 concentration after 48 hrs by AnnexinV/propidium iodide staining based flow cytometric analysis (reference value: 86.9%). The format is functional.
In test [7] the test system is B16-F10. Description: Induction apoptosis in mouse B16-F10 cells assessed as necrotic cells at IC50 concentration after 72 hrs by AnnexinV/propidium iodide staining based flow cytometric analysis (reference value: 9.9%). Format: functional.
A short description of test [8]: Inhibition of LPS-induced cell cycle arrest in mouse RAW264.7 cells assessed as cell accumulation at G0/G1 phase at 0.25 to 0.75 IC50 concentration after 72 hrs by propidium iodide staining based flow cytometric analysis relative to control. Format: functional. Set-up: scale not given: the % may be the effect or the level left.
Test [9] relates to B16-F10. The test is described as follows: Induction apoptosis in mouse B16-F10 cells assessed as necrotic cells at IC80 concentration after 48 hrs by AnnexinV/propidium iodide staining based flow cytometric analysis (reference value: 8.2%). The format is functional.
The test system of test [10] is B16-F10. The test is described as follows: Induction of cell cycle arrest in mouse B16-F10 cells assessed as cells accumulation at S phase at IC50 concentration after 72 hrs by propidium iodide staining based flow cytometric analysis (reference value: 39.21%). The format is functional.
The nature of test [11]: Inhibition of LPS-induced cell cycle arrest in mouse RAW264.7 cells assessed as cell accumulation at G2/M phase at 0.25 to 0.75 IC50 concentration after 72 hrs by propidium iodide staining based flow cytometric analysis relative to control. Format: functional. Set-up: scale not given: the % may be the effect or the level left.
Test [12] relates to B16-F10. Description: Induction of cell cycle arrest in mouse B16-F10 cells assessed as cells accumulation at G2/M phase at IC80 concentration after 72 hrs by propidium iodide staining based flow cytometric analysis (reference value: 3.16%). The format is functional.
Test [13] concerns B16-F10. Description: Induction apoptosis in mouse B16-F10 cells assessed as viable cells at IC80 concentration after 72 hrs by AnnexinV/propidium iodide staining based flow cytometric analysis (reference value: 87.8%). The format is functional.
Another test concerns HepG2. Description: Antiproliferative activity against human HepG2 cells assessed as reduction in cell viability after 72 hrs by MTT assay. The format is functional, cell-based.
Test [14] relates to B16-F10. The test is described as follows: Induction apoptosis in mouse B16-F10 cells assessed as necrotic cells at IC50 concentration after 48 hrs by AnnexinV/propidium iodide staining based flow cytometric analysis (reference value: 8.2%). The format is functional.
Test [15] deals with B16-F10. The test is described as follows: Induction of cell cycle arrest in mouse B16-F10 cells assessed as cells accumulation at G2/M phase at IC50 concentration after 72 hrs by propidium iodide staining based flow cytometric analysis (reference value: 3.16%). The format is functional.
For test [16], the system named is RAW264.7. The test is described as follows: Anti-inflammatory activity against mouse RAW264.7 cells assessed as inhibition of LPS-induced NO production after 48 hrs by griess reagent assay. The format is functional, cell-based. Conditions: RAW264.7, 48 h.
The nature of test [17]: Inhibition of LPS-induced cell cycle arrest in mouse RAW264.7 cells assessed as cell accumulation at S phase at 0.25 to 0.75 IC50 concentration after 72 hrs by propidium iodide staining based flow cytometric analysis relative to control. The format is functional. Set-up: scale not given: the % may be the effect or the level left.
In test [18] the test system is B16-F10. Description: Induction apoptosis in mouse B16-F10 cells assessed as viable cells at IC80 concentration after 48 hrs by AnnexinV/propidium iodide staining based flow cytometric analysis (reference value: 86.9%). Format: functional.

Calls of active or inactive are those of the source. No cut-off for these calls is given here.

`CC(=O)O[C@H]1CC(C)(C)[C@]2(O)CCc3c(cc(O)c(C=O)c3C)[C@@]2(C)[C@H]1OC(C)=O` [NORCAESALPININ C]: the IC50 (usually the concentration at which inhibition is half-maximal) in the test on Plasmodium falciparum was determined as 5 µM.

For the molecule `COC(=O)[C@]1(C)CCC[C@]2(C)c3cc(O)c(C(C)C)c(C)c3CC[C@@H]12`, the IC50 with HT-29 is 222 µM. The inhibition result with RAW264.7 [1] is “Active”.

Consider `CC(=O)O[C@H]1[C@@H]2OC(=O)[C@@H]3c4ccoc4C[C@@H]([C@@H]23)[C@@]2(C)[C@@H](O)CCC(C)(C)[C@]12O`, for which the half-inhibitory concentration (IC50) in the test on RAW264.7 [2] was found to be 25.4 µM.

As to `COC(=O)[C@]1(C)CCC[C@]2(C)c3cc(O)c(CO)c(C)c3CC[C@@H]12`, the inhibition entry with RAW264.7 [1] is “Active”.

`COC(=O)[C@]1(C)CCC[C@@]2(C)[C@H]1CC=C1C(C)=C(C(C)C)C(=O)C[C@@H]12`: the inhibition result with RAW264.7 [3] is “Dde”. Also, the Activity with B16-F10 [4] was 0.1%; with B16-F10 [5], “Dde”; in the test with B16-F10 [6] it was 84.1%; with B16-F10 [7] it was 3.8%; in test [8], 68%; in the test with B16-F10 [9], 2.8%. In addition, the Activity was found to be 38.83% in the test on B16-F10 [10]; 0.3% in test [11]; 1.22% in the test with B16-F10 [12]; 47.5% in the test with B16-F10 [13]; 2.7% in the test with B16-F10 [14]; 1.12% in the test on B16-F10 [15]. Further, the inhibition result with RAW264.7 [1] was “Active”. In the test with HepG2, the IC80 (as a rule, the concentration needed for an effect of 80%) stood at 72.4 µM.

As to `COC(=O)[C@]1(C)CCC[C@]2(C)c3cc4c(c(C)c3CC[C@@H]12)CC(=O)O4`, in the test with RAW264.7 [1], the inhibition entry is “Active”.

Take `C[C@H]1c2ccoc2C[C@H]2[C@H]1[C@H]1O[C@H]1[C@@]1(O)C(C)(C)[C@@H](OC(=O)c3ccccc3)CC[C@]21C`: in the test on RAW264.7 [16], the IC50 was determined as 2900 nM.

With `COC(=O)[C@]1(C)CCC[C@]2(C)c3cc(O)c(C=O)c(C)c3CC[C@@H]12`, the inhibition result with RAW264.7 [3] was “Dde”. In addition, the Activity in test [17] is 69%; with B16-F10 [5], “Dde”; with B16-F10 [18], 64.9%; in the test with B16-F10 [7] it was 0.9%; in test [8] it was 68%; in the test on B16-F10 [9], 2.2%. The Activity stood at 0.3% in [11]; 0% in the test on B16-F10 [12]; 57.9% with B16-F10 [13]; 2.8% in the test with B16-F10 [14]; 0.18% with B16-F10 [15]. Moreover, the inhibition entry in the test with RAW264.7 [1] was “Active”.

In the case of `CC(=O)O[C@H]1CCC(C)(C)[C@]2(O)[C@@H](OC(C)=O)[C@@H]3OC(=O)[C@@H]4c5ccoc5C[C@@H]([C@@H]34)[C@@]12C` [CAESALPININ D], in the test with RAW264.7 [2], the IC50 came out at 25.4 µM.
